± gives the expanded uncertainty stated by the source.
Assays:
[1] = for mass density: 298.1 K, 101.33 kPa, Liquid, Vibrating tube method; for surface tension liquid-gas: 298.15 K, Drop volume
[2] = xn = mol fraction of the nth substance listed; conditions: 298.15 K, Drop volume

CCOS(=O)(=O)[O-].CCn1cc[n+](C)c1 [1-ethyl-3-methylimidazolium ethyl sulfate]
[1]
Conditions | mass density [kg/m3] | surface tension liquid-gas [mN/m]
– | 1238.3 ± 1.1 | 47.13 ± 0.36

CCOS(=O)(=O)[O-].CCn1cc[n+](C)c1 [1-ethyl-3-methylimidazolium ethyl sulfate] + CCO
[2]
Conditions | surface tension liquid-gas [mN/m]
x1 = 0.0988 | 24.18 ± 0.25
x1 = 0.2056 | 26.37 ± 0.25
x1 = 0.3025 | 28.52 ± 0.26
x1 = 0.3989 | 30.68 ± 0.27
x1 = 0.4999 | 32.99 ± 0.28
x1 = 0.5984 | 35.4 ± 0.29
x1 = 0.703 | 38.12 ± 0.31
x1 = 0.8252 | 41.48 ± 0.33
x1 = 0.9048 | 43.81 ± 0.34
x1 = 1 | 47.16 ± 0.36

CCOS(=O)(=O)[O-].CCn1cc[n+](C)c1 [1-ethyl-3-methylimidazolium ethyl sulfate] + O
[2]
Conditions | surface tension liquid-gas [mN/m]
x1 = 0.005 | 67.23 ± 0.33
x1 = 0.0199 | 62.42 ± 0.31
x1 = 0.0402 | 59.68 ± 0.31
x1 = 0.06 | 57.64 ± 0.3
x1 = 0.1006 | 55.64 ± 0.3
x1 = 0.202 | 52.23 ± 0.3
x1 = 0.3017 | 50.45 ± 0.3
x1 = 0.4046 | 49.42 ± 0.31
x1 = 0.5026 | 48.79 ± 0.31
x1 = 0.6066 | 48.3 ± 0.32
x1 = 0.6957 | 47.94 ± 0.33
x1 = 0.7939 | 47.72 ± 0.34
x1 = 0.9041 | 47.39 ± 0.35
x1 = 1 | 47.16 ± 0.36

CCCCCCCCOS(=O)(=O)[O-].CCn1cc[n+](C)c1 [1-ethyl-3-methylimidazolium octyl sulfate]
[1]
Conditions | mass density [kg/m3] | surface tension liquid-gas [mN/m]
– | 1093.75 ± 1.4 | 31.29 ± 0.4

CCCCCCCCOS(=O)(=O)[O-].CCn1cc[n+](C)c1 [1-ethyl-3-methylimidazolium octyl sulfate] + CCO
[2]
Conditions | surface tension liquid-gas [mN/m]
x1 = 0.0399 | 22.89 ± 0.25
x1 = 0.0712 | 23.71 ± 0.25
x1 = 0.098 | 24.48 ± 0.25
x1 = 0.1595 | 25.82 ± 0.26
x1 = 0.215 | 26.62 ± 0.27
x1 = 0.2445 | 27.01 ± 0.27
x1 = 0.2985 | 27.64 ± 0.28
x1 = 0.3506 | 28.18 ± 0.28
x1 = 0.4002 | 28.61 ± 0.29
x1 = 0.4582 | 28.92 ± 0.3
x1 = 0.5059 | 29.14 ± 0.31
x1 = 0.6269 | 29.6 ± 0.33
x1 = 0.7387 | 29.96 ± 0.35
x1 = 0.8317 | 30.5 ± 0.36
x1 = 0.9164 | 30.8 ± 0.38
x1 = 0.9432 | 30.79 ± 0.39
x1 = 0.953 | 30.82 ± 0.39
x1 = 1 | 30.91 ± 0.4

CCCCCCCCOS(=O)(=O)[O-].CCn1cc[n+](C)c1 [1-ethyl-3-methylimidazolium octyl sulfate] + O
[2]
Conditions | surface tension liquid-gas [mN/m]
x1 = 0.0002 | 56.92 ± 0.85
x1 = 0.0007 | 42.45 ± 0.34
x1 = 0.005 | 37.84 ± 0.28
x1 = 0.011 | 37.19 ± 0.26
x1 = 0.0198 | 36.69 ± 0.26
x1 = 0.0349 | 35.3 ± 0.26
x1 = 0.0506 | 34.96 ± 0.26
x1 = 0.0774 | 33.87 ± 0.26
x1 = 0.0937 | 33.62 ± 0.26
x1 = 0.2846 | 31.01 ± 0.27
x1 = 0.4 | 30.48 ± 0.28
x1 = 0.5127 | 30.72 ± 0.3
x1 = 0.5677 | 30.67 ± 0.31
x1 = 0.6347 | 30.71 ± 0.32
x1 = 0.6934 | 30.74 ± 0.33
x1 = 0.7018 | 30.77 ± 0.34
x1 = 0.7373 | 30.7 ± 0.34
x1 = 0.766 | 30.81 ± 0.35
x1 = 0.8287 | 30.71 ± 0.36
x1 = 0.8904 | 30.79 ± 0.37
x1 = 1 | 30.91 ± 0.4

CCCCCCOS(=O)(=O)[O-].CC[n+]1ccn(C)c1 [3-ethyl-1-methyl-1H-imidazolium hexyl sulfate]
[1]
Conditions | mass density [kg/m3] | surface tension liquid-gas [mN/m]
– | 1129.6 ± 1.4 | 34.77 ± 0.43

CCCCCCOS(=O)(=O)[O-].CC[n+]1ccn(C)c1 [3-ethyl-1-methyl-1H-imidazolium hexyl sulfate] + CCO
[2]
Conditions | surface tension liquid-gas [mN/m]
x1 = 0.03 | 22.98 ± 0.25
x1 = 0.0679 | 23.87 ± 0.25
x1 = 0.0977 | 24.48 ± 0.25
x1 = 0.1253 | 25 ± 0.25
x1 = 0.2267 | 26.53 ± 0.27
x1 = 0.3138 | 27.69 ± 0.28
x1 = 0.386 | 28.6 ± 0.29
x1 = 0.4691 | 29.48 ± 0.3
x1 = 0.5946 | 30.86 ± 0.33
x1 = 0.7189 | 32.08 ± 0.36
x1 = 0.7951 | 32.84 ± 0.37
x1 = 0.9409 | 34.31 ± 0.41
x1 = 1 | 34.77 ± 0.43

CCCCCCOS(=O)(=O)[O-].CC[n+]1ccn(C)c1 [3-ethyl-1-methyl-1H-imidazolium hexyl sulfate] + O
[2]
Conditions | surface tension liquid-gas [mN/m]
x1 = 0.0005 | 62.58 ± 0.96
x1 = 0.0008 | 58.45 ± 0.83
x1 = 0.002 | 49.54 ± 0.9
x1 = 0.005 | 42.13 ± 0.56
x1 = 0.0196 | 40.27 ± 0.27
x1 = 0.0396 | 39.55 ± 0.27
x1 = 0.0602 | 38.88 ± 0.27
x1 = 0.0797 | 38.25 ± 0.27
x1 = 0.0997 | 37.79 ± 0.27
x1 = 0.1997 | 36.16 ± 0.28
x1 = 0.3009 | 35.59 ± 0.29
x1 = 0.4034 | 35.25 ± 0.3
x1 = 0.4957 | 35.05 ± 0.32
x1 = 0.5943 | 34.95 ± 0.34
x1 = 0.705 | 34.87 ± 0.36
x1 = 0.7893 | 34.82 ± 0.38
x1 = 0.8997 | 34.77 ± 0.41
x1 = 1 | 34.77 ± 0.43

CCCCOS(=O)(=O)[O-].CC[n+]1ccn(C)c1 [3-ethyl-1-methylimidazolium butyl sulfate]
[1]
Conditions | mass density [kg/m3] | surface tension liquid-gas [mN/m]
– | 1175.65 ± 1.5 | 39.64 ± 0.48

CCCCOS(=O)(=O)[O-].CC[n+]1ccn(C)c1 [3-ethyl-1-methylimidazolium butyl sulfate] + CCO
[2]
Conditions | surface tension liquid-gas [mN/m]
x1 = 0.066 | 23.6 ± 0.25
x1 = 0.1347 | 25.01 ± 0.26
x1 = 0.1536 | 25.36 ± 0.26
x1 = 0.2904 | 27.76 ± 0.28
x1 = 0.4691 | 30.63 ± 0.31
x1 = 0.4993 | 31.05 ± 0.32
x1 = 0.6866 | 33.99 ± 0.36
x1 = 0.7916 | 35.75 ± 0.4
x1 = 0.8794 | 37.35 ± 0.43
x1 = 1 | 39.62 ± 0.47

CCCCOS(=O)(=O)[O-].CC[n+]1ccn(C)c1 [3-ethyl-1-methylimidazolium butyl sulfate] + O
[2]
Conditions | surface tension liquid-gas [mN/m]
x1 = 0.0389 | 44.48 ± 0.35
x1 = 0.0403 | 45.93 ± 0.35
x1 = 0.0579 | 40.83 ± 0.28
x1 = 0.0602 | 41.7 ± 0.28
x1 = 0.0758 | 39.85 ± 0.27
x1 = 0.0805 | 39.96 ± 0.27
x1 = 0.0934 | 39.08 ± 0.27
x1 = 0.0987 | 39.17 ± 0.27
x1 = 0.1004 | 39.42 ± 0.27
x1 = 0.101 | 39.84 ± 0.28
x1 = 0.12 | 39.74 ± 0.27
x1 = 0.133 | 40.29 ± 0.28
x1 = 0.1464 | 40.85 ± 0.28
x1 = 0.1716 | 41.83 ± 0.29
x1 = 0.1947 | 41.59 ± 0.29
x1 = 0.2004 | 41.48 ± 0.29
x1 = 0.2585 | 40.83 ± 0.3
x1 = 0.2973 | 40.81 ± 0.3
x1 = 0.3957 | 40.04 ± 0.32
x1 = 0.4017 | 40.31 ± 0.32
x1 = 0.4764 | 39.93 ± 0.34
x1 = 0.4992 | 40.01 ± 0.34
x1 = 0.5868 | 39.89 ± 0.36
x1 = 0.703 | 39.82 ± 0.39
x1 = 0.7997 | 39.77 ± 0.42
x1 = 0.9034 | 39.67 ± 0.45
x1 = 1 | 39.62 ± 0.47

CCO [ethanol]
Conditions | surface tension liquid-gas [mN/m]
[1] | 22.01 ± 0.24

CCO [ethanol] + CCOS(=O)(=O)[O-].CCn1cc[n+](C)c1
Conditions | surface tension liquid-gas [mN/m]
[2], x2 = 0 | 22.01 ± 0.24

O [water]
Conditions | surface tension liquid-gas [mN/m]
[1] | 71.35 ± 0.33

O [water] + CCOS(=O)(=O)[O-].CCn1cc[n+](C)c1
Conditions | surface tension liquid-gas [mN/m]
[2], x2 = 0 | 71.35 ± 0.33
